From paper PMC3686551 (Tuberculosis (Edinburgh, Scotland), 2013)

Target: Mtb FtsZ (Mycobacterium tuberculosis, UniProt P9WN95)
Assay: FtsZ polymerization inhibition
Assay type: biochemical

Chain of Mtb FtsZ (P9WN95 whole entry): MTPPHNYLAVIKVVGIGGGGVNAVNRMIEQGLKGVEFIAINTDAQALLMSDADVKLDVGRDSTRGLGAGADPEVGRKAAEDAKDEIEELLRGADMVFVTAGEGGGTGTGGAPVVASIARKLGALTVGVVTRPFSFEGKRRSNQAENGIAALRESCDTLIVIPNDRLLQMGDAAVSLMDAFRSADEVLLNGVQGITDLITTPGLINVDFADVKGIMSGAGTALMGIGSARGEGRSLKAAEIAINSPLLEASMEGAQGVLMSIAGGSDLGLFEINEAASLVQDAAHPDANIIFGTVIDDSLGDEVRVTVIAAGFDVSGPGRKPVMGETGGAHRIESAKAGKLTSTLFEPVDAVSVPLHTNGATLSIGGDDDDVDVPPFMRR

## CCCOc1ccc(N(C)c2cc(C)nc3ccc(Cl)cc23)cc1 [compound 3]
  IC50: > 100 µM
